In US20250179047A1, “5-[7-(3,4-DIHYDRO-1H-ISOQUINOLINE-2-CARBONYL)-1,2,3,4 TETRAHYDROISOQUINOLIN-6-YL]-1H-PYRROLE-3-CARBOXAMIDE DERIVATIVES, PHARMACEUTICAL COMPOSITIONS CONTAINING THEM AND THEIR USES AS PRO-APOPTOTIC AGENTS” (LES LABORATOIRES SERVIER, priority 2022, published 2025):
pKi: −log10 of the molar value.

Tests used:
BCL2 WT = BCL2 WT (Homo sapiens (Human), UniProt P10415); assay: TR-FRET competitive binding assay, BCL2 WT; conditions: Ki determined from IC50, read-out: TR_FRET EKI_Bcl2 WT
Outline: (§1)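 Ki derived from IC50 (11-point dilution, 520/495 nm emission ratio) for displacing a fluorescein-labelled PUMA peptide (2 or 20 nM). Target was 0.5 nM E. coli-expressed Halo-tagged BCL2 (1-207) or BCLXL (2-196), terbium-labelled on Halo. Incubation 2 h at 23°C in pH 7.5 Hepes with 150 mM NaCl and 5% DMSO.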

BCL2 G101V [1] = biological target: BCL2 G101V (Homo sapiens, UniProt P10415, G101V); assay: TR-FRET competitive binding assay, BCL2 G101V; conditions: BCL2 G101V; Ki determined from IC50; read-out: TR_FRET EKI_Bcl2 G101V
Outline: as §1

BCL2 G101V [2] = assay: TR-FRET competitive binding assay, BCL2 G101V; design: species or system human; conditions: ratio Ki BCL2 G101V / Ki BCL2 WT
Outline: as §1

BCL2 D103Y = BCL2 D103Y (Homo sapiens, UniProt P10415, D103Y); assay: TR-FRET competitive binding assay, BCL2 D103Y; conditions: Ki determined from IC50, read-out: TR_FRET EKI_Bcl2 D103Y
Outline: as §1

BCLXL WT = BCLXL WT (Homo sapiens (Human), UniProt Q07817); assay: TR-FRET competitive binding assay, BCLXL WT; conditions: for pKi: BCLXL WT, Ki determined from IC50, read-out: TR_FRET EKI BclxL; for TR_FRET EKI BCLxL/WT selectivty ratio: ratio Ki BCLxL / Ki BCL2 WT
BCLXL WT, sequence (Q07817 other isoform, or with tags, fused parts or gaps): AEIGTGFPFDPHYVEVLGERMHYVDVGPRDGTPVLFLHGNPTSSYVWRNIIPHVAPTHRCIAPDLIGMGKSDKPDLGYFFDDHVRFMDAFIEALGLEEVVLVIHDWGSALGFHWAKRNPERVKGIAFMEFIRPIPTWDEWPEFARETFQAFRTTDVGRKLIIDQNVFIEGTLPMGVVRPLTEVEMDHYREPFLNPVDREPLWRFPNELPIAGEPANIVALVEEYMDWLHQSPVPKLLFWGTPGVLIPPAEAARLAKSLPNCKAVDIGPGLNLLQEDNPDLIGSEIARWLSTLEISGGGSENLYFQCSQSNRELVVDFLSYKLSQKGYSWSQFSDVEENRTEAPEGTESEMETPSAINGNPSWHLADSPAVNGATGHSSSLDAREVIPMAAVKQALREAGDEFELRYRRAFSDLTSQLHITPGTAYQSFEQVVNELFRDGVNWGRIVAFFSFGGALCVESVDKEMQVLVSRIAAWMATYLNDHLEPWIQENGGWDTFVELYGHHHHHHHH
Outline: as §1

KMS-12-PE Bcl-2 WT = assay: In vitro cytotoxicity CellTiter-Glo 48 h, KMS-12-PE Bcl-2 WT; assay type: cell-based; conditions: C50 = concentration needed to reach 50% of the cellular viability
Outline: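 Bcl-2 WT- and G101V-expressing KMS-12-PE cells; 48 h treatment at 37 °C, 5% CO2; CellTiter-Glo ATP luminescence; C50 from 11-point curves.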

KMS-12-PE Bcl-2 G101V = assay: In vitro cytotoxicity CellTiter-Glo 48 h, KMS-12-PE Bcl-2 G101V; assay type: cell-based; conditions: for Ratio (G101V/WT): C50 KMS-12-PE Bcl-2 G101V over C50 KMS-12-PE Bcl-2 WT; for IC50: 48 h, CellTiter-Glo, C50 = concentration needed to reach 50% of the cellular viability
Method: KMS-12-PE (ACC 606) were purchased from the Leibniz-Institute DSMZ (Braunschweig, Germany) and were grown at 37° C. in a humidified atmosphere with […] in media recommended by the suppliers. Lentiviral particles containing Bcl-2 wild type (also named “Bcl2 WT”) and Bcl-2 mutated on G101V (also named “Bcl2 G101V”) were cloned into pcLV-CMV-DEST-IRES-TagRFP. Lentiviral particles (1×106) were mixed with Polybrene at 8 µg/ml and transduced by spinoculation for 1 h at 32° C. and incubated overnight. After 8 days, TagRFP positive-cells were sorted by FACS. BCL2 expression was monitored by immunoblotting using anti-Flag and anti-BCL2 antibodies.
Cellular viability was monitored with the cell viability assay (CellTiter-Glo®) on KMS-12-PE WT and G101V cell lines. The CellTiter-Glo® (CTG) Luminescent Cell Viability Assay (from Promega) is a homogeneous method to determine the number of viable cells in culture based on quantitation of the ATP present, which signals the presence of metabolically active cells.
Dose response of compounds are performed with 10 mM stock solutions (DMSO), 11-points curve, in a 384-well compound plate. The assay plate is prepared by stamping 40 nL from compound dilution plate of all different concentrations (e.g. 10 mM to have final […] assay test) into a cell culture microplate, using Echo acoustic liquid handling (Labcyte, Beckman). 40 μl of cell solution is added and cells are incubated with compounds for 48 h at 37° C., 5% CO2. CTG was added to the cells (according to the manufacturer instructions) and luminescence intensity was recorded using the Pherastar plate reader (BMG).
This assay provides in vitro cellular potency of the tested Bcl-2 inhibitors, measuring the C50, defined as the concentration needed to reach 50% of the cellular viability.

SMILES | pKi (BCL2 WT) | pKi (BCL2 G101V [1]) | TR_FRET EKI G101V/WT selectivty ratio (BCL2 G101V [2]) | pKi (BCL2 D103Y) | pKi (BCLXL WT) | TR_FRET EKI BCLxL/WT selectivty ratio (BCLXL WT) | IC50 (KMS-12-PE Bcl-2 WT; Homo sapiens, KMS-12-PE) | Ratio (G101V/WT) (KMS-12-PE Bcl-2 G101V) | IC50 (KMS-12-PE Bcl-2 G101V; Homo sapiens, KMS-12-PE) | IC50 (KMS-12-PE Bcl-2 WT) | IC50 (KMS-12-PE Bcl-2 G101V)
Cc1c(C(=O)N(c2ccc(O)cc2)c2cc(C#N)n(CC3CCOC3)c2C)cc(-c2cc3c(cc2C(=O)N2Cc4ccccc4C[C@H]2C)CN(C(=O)Cc2ccc(OCCN4CCOCC4)cc2F)CC3)n1C (single isomer, unassigned) [Example 84, N-[5-cyano-2-methyl-1-((3S or R)-tetrahydrofuran-3-ylmethyl)pyrrol-3-yl]-5-[2-[2-[2-fluoro-4-(2-morpholinoethoxy)phenyl]acetyl]-7-[(3R)-3-methyl-3,4-dihydro-1H-isoquinoline-2-carbonyl]-3,4-dihydro-1H-isoquinolin-6-yl]-N-(4-hydroxyphenyl)-1,2-dimethyl-pyrrole-3-carboxamide] | 9.80 | 9.00 | 5.9 | 9.37 | 8.74 | 11.3 | 0.0073 µM | 4.83 | 0.0353 µM | – | –
Cc1c(N(C(=O)c2cc(-c3cc4c(cc3C(=O)N3Cc5ccccc5C[C@H]3CN3CCCCC3)CN(C(=O)Cc3ccc(OCC(C)N5CCOCC5)cc3)CC4)n(C)c2C)c2ccc(O)cc2)cc(C#N)n1C (single isomer, unassigned) [Example 128, N-(5-cyano-1,2-dimethyl-1H-pyrrol-3-yl)-N-(4-hydroxyphenyl)-1,2-dimethyl-5-[2-(2-{4-[(2R or S)-2-(morpholin-4-yl)propoxy]phenyl}acetyl)-7-[(3S)-3-[(piperidin-1-yl)methyl]-1,2,3,4-tetrahydroisoquinoline-2-carbonyl]-1,2,3,4-tetrahydroisoquinolin-6-yl]-1H-pyrrole-3-carboxamide] | 10.22 | 9.40 | 6.9 | 9.68 | 8.27 | 93.1 | – | 5.95 | – | 0.0103 µM | 0.0613 µM
Cc1c(N(C(=O)c2cc(-c3cc4c(cc3C(=O)N3Cc5ccccc5C[C@H]3C)CN(C(=O)Cc3ccc(Oc5ccccc5)cc3)CC4)n(C)c2C)c2ccc(O)cc2)cc(C#N)n1C [Example 10, N-(5-cyano-1,2-dimethyl-1H-pyrrol-3-yl)-N-(4-hydroxyphenyl)-1,2-dimethyl-5-{7-[(3R)-3-methyl-1,2,3,4-tetrahydroisoquinoline-2-carbonyl]-2-[2-(4-phenoxyphenyl)acetyl]-1,2,3,4-tetrahydroisoquinolin-6-yl}-1H-pyrrole-3-carboxamide] | 8.66 | 8.24 | 2.6 | 8.53 | 7.51 | 14.2 | 0.014 µM | 4.58 | 0.0641 µM | – | –
Cc1c(N(C(=O)c2cc(-c3cc4c(cc3C(=O)N3Cc5ccccc5C[C@H]3C)CN(C(=O)Cc3ccc(F)cc3F)CC4)n(C)c2C)c2ccc(O)cc2)cc(C#N)n1C [Example 11, N-(5-cyano-1,2-dimethyl-1H-pyrrol-3-yl)-5-{2-[2-(2,4-difluorophenyl)acetyl]-7-[(3R)-3-methyl-1,2,3,4-tetrahydroisoquinoline-2-carbonyl]-1,2,3,4-tetrahydroisoquinolin-6-yl}-N-(4-hydroxyphenyl)-1,2-dimethyl-1H-pyrrole-3-carboxamide] | 9.47 | 8.89 | 3.8 | 9.26 | 8.32 | 14.1 | 0.0035 µM | 7.05 | 0.0249 µM | – | –

The next lines start with results.

pKi (BCL2 WT) | pKi (BCL2 G101V [1]) | TR_FRET EKI G101V/WT selectivty ratio (BCL2 G101V [2]) | pKi (BCL2 D103Y) | pKi (BCLXL WT) | TR_FRET EKI BCLxL/WT selectivty ratio (BCLXL WT) | SMILES | IC50 (KMS-12-PE Bcl-2 WT; Homo sapiens, KMS-12-PE) | Ratio (G101V/WT) (KMS-12-PE Bcl-2 G101V) | IC50 (KMS-12-PE Bcl-2 G101V; Homo sapiens, KMS-12-PE) | IC50 (KMS-12-PE Bcl-2 WT) | IC50 (KMS-12-PE Bcl-2 G101V)
10.22 | 9.52 | 4.7 | 9.70 | 8.96 | 17.7 | Cc1c(N(C(=O)c2cc(-c3cc4c(cc3C(=O)N3Cc5ccccc5C[C@H]3CN3CCCCC3)CN(C(=O)Cc3ccc(OCC(C)N5CCOCC5)cc3F)CC4)n(C)c2C)c2ccc(O)cc2)cc(C#N)n1C (single isomer, unassigned) [Example 141, N-(5-cyano-1,2-dimethyl-1H-pyrrol-3-yl)-5-[2-(2-{2-fluoro-4-[(2R or S)-2-(morpholin-4-yl)propoxy]phenyl}acetyl)-7-[(3S)-3-[(piperidin-1-yl)methyl]-1,2,3,4-tetrahydroisoquinoline-2-carbonyl]-1,2,3,4-tetrahydroisoquinolin-6-yl]-N-(4-hydroxyphenyl)-1,2-dimethyl-1H-pyrrole-3-carboxamide] | – | 2.2379 | – | 0.0085 µM | 0.019 µM
9.89 | 9.22 | 4.8 | 9.52 | 8.04 | 70.8 | Cc1c(C(=O)N(c2ccc(O)cc2)c2cc(C#N)n(C(F)F)c2C)cc(-c2cc3c(cc2C(=O)N2Cc4ccccc4C[C@H]2CN2CCCCC2)CN(C(=O)Cc2ccc(OCCN4CCOC(C)C4)cc2F)CC3)n1C (single isomer, unassigned) [Example 162, N-[5-cyano-1-(difluoromethyl)-2-methyl-pyrrol-3-yl]-5-[2-[2-[2-fluoro-4-[2-((2R or S)-2-methylmorpholin-4-yl)ethoxy]phenyl]acetyl]-7-[(3S)-3-(1-piperidylmethyl)-3,4-dihydro-1H-isoquinoline-2-carbonyl]-3,4-dihydro-1H-isoquinolin-6-yl]-N-(4-hydroxyphenyl)-1,2-dimethyl-pyrrole-3-carboxamide] | 0.0063 µM | 5.0958 | 0.0319 µM | – | –
10.15 | 9.30 | 7.8 | 9.52 | 8.59 | 38.8 | Cc1c(N(C(=O)c2cc(-c3cc4c(cc3C(=O)N3Cc5ccccc5C[C@H]3CN3CCCCC3)CN(C(=O)Cc3ccc(OCCC5COCCO5)cc3F)CC4)n(C)c2C)c2ccc(O)cc2)cc(C#N)n1C (single isomer, unassigned) [Example 174, N-(5-cyano-1,2-dimethyl-pyrrol-3-yl)-5-[2-[2-[4-[2-((2S or R)-1,4-dioxan-2-yl)ethoxy]-2-fluoro-phenyl]acetyl]-7-[(3S)-3-(1-piperidylmethyl)-3,4-dihydro-1H-isoquinoline-2-carbonyl]-3,4-dihydro-1H-isoquinolin-6-yl]-N-(4-hydroxyphenyl)-1,2-dimethyl-pyrrole-3-carboxamide] | 0.0044 µM | 5.6751 | 0.0248 µM | – | –
10.10 | 9.30 | 7.0 | 9.47 | 8.51 | 40.8 | Cc1c(N(C(=O)c2cc(-c3cc4c(cc3C(=O)N3Cc5ccccc5C[C@H]3CN3CCCCC3)CN(C(=O)Cc3ccc(OCCC5COCCO5)cc3F)CC4)n(C)c2C)c2ccc(O)cc2)cc(C#N)n1C (single isomer, unassigned) [Example 175, N-(5-cyano-1,2-dimethyl-pyrrol-3-yl)-5-[2-[2-[4-[2-((2R or S)-1,4-dioxan-2-yl)ethoxy]-2-fluoro-phenyl]acetyl]-7-[(3S)-3-(1-piperidylmethyl)-3,4-dihydro-1H-isoquinoline-2-carbonyl]-3,4-dihydro-1H-isoquinolin-6-yl]-N-(4-hydroxyphenyl)-1,2-dimethyl-pyrrole-3-carboxamide] | – | 6.335 | – | 0.0041 µM | 0.0261 µM
